# Assay results reported in patent publication US20240299562A1 (priority 2020, published 2024).
# Read-outs that look alike come from different tables or passages of the source. Where a SMILES comes first, the peptide text is derived from it.
# Legend:
# [1] = tested on: A2058 cells; assay: WST-1 cell viability, A2058 melanoma cells; type: cell-based; details: for IC50: read-out: Absolute IC50
# Description: (§1) All commercial cell lines were purchased at ATCC (LGC Standards SARL, France). Cells were seeded in 96-well plates according to their optimal seeding density, varying between 5.000 and 10.000 cells/well. After attachment overnight, 10-point serial titrations (1:5) were prepared in their equivalent complete media as recommended by ATCC, starting from the 10 mM stock solutions. For doxorubicin comprising prodrugs dilutions started from 100 μM, while for the parent compound doxorubicin dilutions started at 10 μM. […] Seventy-two hours later, compounds were removed together with the supernatants and cells were washed once with PBS to remove excess drugs.
# (§2) The WST-1 assay for cell proliferation and viability (Roche, Switzerland) was performed according to manufacturer's protocol. Absorbances were measured at 4 hrs using a Perkin Elmer Ensight multiplate reader, equipped with Kaleido 2.0 software (Perkin Elmer, USA). Cell viability was expressed as a percentage compared to non-treated cells. Absolute IC50 values were extrapolated from a non-linear fitting following the Sigmoidal-4PL regression method using Graphpad Prism 7.0. Likewise, maximal efficacy was determined as 100% minus the cell viability determined when cells are incubated in the presence of a compound. For instance, if 20% of the cells survive incubation in the presence of a compound, then the maximal efficacy of that compound is 100%-20%=80%.
# (§3) Selectivity indices (SI) were defined as the ratio of the concentration of drug required to kill 50% of the cells in normal (control, non-cancer) cells, divided by the concentration required to exert the same efficacy in tumor cells: SI=IC50 (control cell)/IC50 (cancer cell), or SI=^HME-1IC50/cancer IC50.
# [2] = tested on: U-87 MG cells; assay: WST-1 cell viability, U-87 MG glioblastoma cells; type: cell-based; details: for IC50: read-out: Absolute IC50
# Description: as §1, §2, §3
# [3] = tested on: MDA-MB-231 cells; assay: WST-1 cell viability, MDA-MB-231 triple negative breast cancer cells; type: cell-based; details: for IC50: read-out: Absolute IC50
# Description: as §1, §2, §3
# [4] = tested on: MIA PaCa-2 cells; assay: WST-1 cell viability, MIA PaCa-2 pancreatic cancer cells; type: cell-based
# Description: as §1, §2, §3
# [5] = tested on: Human umbilical vein endothelial cells (HUVEC); assay: WST-1 cell viability, normal HUVEC cells; type: cell-based; details: 72 hrs
# Description: as §1, §2, §3
# [6] = tested on: U87 MG glioblastoma cells subcutaneously implanted in nude NMRI mice; assay: In vivo activity of PhAc-ALLP-Dox on U87 MG glioblastoma xenograft; parameters: species or system mouse; details: 30 mg/kg iv, once per week, four administrations
# Description: The in vivo efficacy of PhAc-ALLP-Dox was tested in a mouse GBM model. U87 MG glioblastoma cells were subcutaneously (SC) implanted in nude NMRI mice. In total, 32 adult (9-10 weeks old) nude female NMRI mice (Janvier, France) were subjected to SC tumor cell grafting in the right flank. In total, 5×10^6 U87 MG cells resuspended in PBS plus Matrigel (1:1) were injected in 200 uL final volume. As soon as the tumors were palpable and reached the volume of 200 mm3 the treatment was started. At day zero, mice were randomly divided into 4 groups, based on the tumor volume, in order to have the following experimental sub-cohorts: • control group receiving the vehicle (PBS pH7.2) with a dose of 5 ml/kg, intravenously (iv), once per week (QW); • PhAc-ALLP-Dox (30 mg/kg iv, QW); • PhAc-ALGP-Dox (154 mg/kg iv, QW); • Dox (5 mg/kg iv, QW).
# Treatments were performed once per week for a total of four tail vein administrations/injections (on days 1, 7, 14 and 21). One extra week of observation followed the active treatment phase. During the experiment, tumor volume was measured two times a week and was assessed three-dimensionally with a digital caliper (Mitutoyo, Illinois) using the following formula:
# V=4/3π×[(d/2)^2×(D/2)], where d is the minor tumor axis and D is the major tumor axis.
# [7] = WST-1 cell viability, normal HME-1 cells; type: cell-based, human; details: human; HME-1 normal cells; 72 hrs, WST-1 (Table 2); read-out: Maximal efficacy, cytotoxicity (%) at 100 μM
# Description: as §1, §2, §3
# [8] = tested on: HME-1 cells; assay: WST-1 cell viability, normal HME-1 cells; type: cell-based, human; details: for IC50: read-out: Absolute IC50
# Description: as §1, §2, §3
# [9] = tested on: A2780 Cp cells; assay: WST-1 cell viability, A2780 CpR (cisplatin resistant) ovarian cancer cells; type: cell-based
# Description: as §1, §2, §3
# [10] = tested on: HCT-116 cells; assay: WST-1 cell viability, HCT-116 colorectal cancer cells; type: cell-based
# Description: as §1, §2, §3
# [11] = tested on: DU145 cells; assay: WST-1 cell viability, DU145 prostate cancer cells; type: cell-based
# Description: as §1, §2, §3
# [12] = tested on: A-172 cells; assay: WST-1 cell viability, A-172 glioblastoma cells; type: cell-based; details: for IC50: read-out: Absolute IC50
# Description: as §1, §2, §3
# [13] = tested on: NCI-1299 cells; assay: WST-1 cell viability, NCI-H1299 lung cancer cells; type: cell-based
# Description: as §1, §2, §3
# [14] = tested on: A2780 cells; assay: WST-1 cell viability, A2780 ovarian cancer cells; type: cell-based
# Description: as §1, §2, §3
structure (smiles),measurement,setting,value
"COc1cccc2c1C(=O)c1c(O)c3c(c(O)c1C2=O)C[C@@](O)(C(=O)CO)C[C@@H]3O[C@H]1C[C@H](NC(=O)[C@@H]2CCCN2C(=O)[C@H](CC(C)C)NC(=O)[C@H](CC(C)C)NC(=O)[C@H](C)NC(=O)CP(=O)(O)O)[C@H](O)[C@H](C)O1 [PhAc-ALLP-Dox, PhAc-ALLP-Doxorubicin] (HELM PEPTIDE1{[O=C(CP(=O)(O)O)[*:2]].A.L.L.P.[COc1cccc2c1C(=O)c1c(O)c3c(c(O)c1C2=O)C[C@@](O)(C(=O)CO)C[C@@H]3O[C@H]1C[C@H](N[*:1])[C@H](O)[C@H](C)O1]}$$$$V2.0)",SI = HME-1 IC50/cancer IC50,[1]; A2058 (Melanoma) vs HME-1 (Table 3),298.19
same,SI = HUVEC IC50 / cancer IC50,"[1]; A2058 (Melanoma), * towards HUVEC cells (Table 6)",*336.1
same,SI = normal IC50 / cancer IC50,"[1]; A2058 (Melanoma), selectivity towards HME-1 cells (Table 6)",298.2
same,IC50,"[1]; A2058 (Melanoma), 72 hrs, WST-1 (Table 1)",120 nM
same,"Maximal efficacy, cytotoxicity (%) at 100 μM","[1]; A2058 (Melanoma), 72 hrs, WST-1 (Table 2)",97.56%
same,IC50,"[1]; A2058 (Melanoma), 72 hrs, WST-1 (Table 4)",120 nM
same,Maximal efficacy,"[1]; A2058 (Melanoma), 72 hrs, WST-1 (Table 5)",97.6%
same,SI = HME-1 IC50/cancer IC50,[2]; U-87 MG (GBM) vs HME-1 (Table 3),128.53
same,SI = HUVEC IC50 / cancer IC50,"[2]; U-87 MG (GBM), * towards HUVEC cells (Table 6)",*144.9
same,SI = iAstro IC50 / cancer IC50,"[2]; U-87 MG (GBM), ** towards hiPSCs (iAstro) (Table 6)",**14.1
same,SI = normal IC50 / cancer IC50,"[2]; U-87 MG (GBM), selectivity towards HME-1 cells (Table 6)",128.5
same,IC50,"[2]; U-87 MG (GBM), 72 hrs, WST-1 (Table 1)",290 nM
same,"Maximal efficacy, cytotoxicity (%) at 100 μM","[2]; U-87 MG (GBM), 72 hrs, WST-1 (Table 2)",94.35%
same,IC50,"[2]; U-87 MG (GBM), 72 hrs, WST-1 (Table 4)",1440 nM
same,Maximal efficacy,"[2]; U-87 MG (GBM), 72 hrs, WST-1 (Table 5)",97.1%
same,SI = HME-1 IC50/cancer IC50,[3]; MDA-MB-231 (TNBC) vs HME-1 (Table 3),3.85
same,SI = HUVEC IC50 / cancer IC50,"[3]; MDA-MB-231 (TNBC), * towards HUVEC cells (Table 6)",*23.6
same,SI = normal IC50 / cancer IC50,"[3]; MDA-MB-231 (TNBC), selectivity towards HME-1 cells (Table 6)",20.9
same,IC50,"[3]; MDA-MB-231 (TNBC), 72 hrs, WST-1 (Table 1)",9570 nM
same,"Maximal efficacy, cytotoxicity (%) at 100 μM","[3]; MDA-MB-231 (TNBC), 72 hrs, WST-1 (Table 2)",71.20%
same,IC50,"[3]; MDA-MB-231 (TNBC), 72 hrs, WST-1 (Table 4)",9570 nM
same,Maximal efficacy,"[3]; MDA-MB-231 (TNBC), 72 hrs, WST-1 (Table 5)",71.2%
same,SI = HME-1 IC50/cancer IC50,[4]; MIA PaCa-2 (PaC) vs HME-1 (Table 3),0.79
same,IC50,"[4]; MIA PaCa-2 (PaC), 72 hrs, WST-1 (Table 1), read-out: Absolute IC50",46800 nM
same,"Maximal efficacy, cytotoxicity (%) at 100 μM","[4]; MIA PaCa-2 (PaC), 72 hrs, WST-1 (Table 2)",65.41%
same,IC50,"[5]; WST-1 (Table 4), read-out: Absolute IC50",41600 nM
same,Maximal efficacy,[5]; WST-1 (Table 5),53.1%
same,Tumor volume compared to the untreated control group,[6],importantly reduced the tumor volume
same,"cytotoxicity at 72 h, 100 µM",[7],59.5%
same,SI = HME-1 IC50/cancer IC50,[8]; HME-1 normal cells against themselves (Table 3),1.00
same,IC50,"[8]; HME-1 normal cells, 72 hrs continuous drug exposure, WST-1 (Table 1)",36900 nM
same,IC50,"[8]; HME-1 normal cells, 72 hrs, WST-1 (Table 4)",36900 nM
same,Maximal efficacy,"[8]; HME-1 normal cells, 72 hrs, WST-1, cytotoxicity at highest concentration (Table 5)",59.5%
same,SI = HME-1 IC50/cancer IC50,[9]; A2780 Cp (OvC) vs HME-1 (Table 3),257.22
same,"Maximal efficacy, cytotoxicity (%) at 100 μM","[9]; A2780 Cp (OvC), 72 hrs, WST-1 (Table 2)",85.27%
same,IC50,"[9]; A2780 Cp (OvC, cisplatin resistant), 72 hrs, WST-1 (Table 1), read-out: Absolute IC50",140 nM
same,SI = HME-1 IC50/cancer IC50,[10]; HCT-116 (CrC) vs HME-1 (Table 3),3.34
same,IC50,"[10]; HCT-116 (CrC), 72 hrs, WST-1 (Table 1), read-out: Absolute IC50",11100 nM
same,"Maximal efficacy, cytotoxicity (%) at 100 μM","[10]; HCT-116 (CrC), 72 hrs, WST-1 (Table 2)",67.49%
same,SI = HME-1 IC50/cancer IC50,[11]; DU145 (PrC) vs HME-1 (Table 3),5.25
same,IC50,"[11]; DU145 (PrC), 72 hrs, WST-1 (Table 1), read-out: Absolute IC50",7020 nM
same,"Maximal efficacy, cytotoxicity (%) at 100 μM","[11]; DU145 (PrC), 72 hrs, WST-1 (Table 2)",79.25%
same,SI = HME-1 IC50/cancer IC50,[12]; A-172 (GBM) vs HME-1 (Table 3),30.54
same,SI = HUVEC IC50 / cancer IC50,"[12]; A-172 (GBM), * towards HUVEC cells (Table 6)",*34.4
same,SI = iAstro IC50 / cancer IC50,"[12]; A-172 (GBM), ** towards hiPSCs (iAstro) (Table 6)",**15.8
same,SI = normal IC50 / cancer IC50,"[12]; A-172 (GBM), selectivity towards HME-1 cells (Table 6)",30.5
same,IC50,"[12]; A-172 (GBM), 72 hrs, WST-1 (Table 1)",1210 nM
same,"Maximal efficacy, cytotoxicity (%) at 100 μM","[12]; A-172 (GBM), 72 hrs, WST-1 (Table 2)",98.08%
same,IC50,"[12]; A-172 (GBM), 72 hrs, WST-1 (Table 4)",1290 nM
same,Maximal efficacy,"[12]; A-172 (GBM), 72 hrs, WST-1 (Table 5)",80.9%
same,"Selectivity index towards hiPSC-derived astrocytes, GBM","[12]; GBM indication as a whole (A-172 and U-87 MG), vs iAstro",14.9±0.8
same,SI = HME-1 IC50/cancer IC50,[13]; NCI-1299 (NSCLC) vs HME-1 (Table 3),27.39
same,IC50,"[13]; NCI-1299 (NSCLC), 72 hrs, WST-1 (Table 1), read-out: Absolute IC50",1350 nM
same,"Maximal efficacy, cytotoxicity (%) at 100 μM","[13]; NCI-1299 (NSCLC), 72 hrs, WST-1 (Table 2)",70.15%
same,SI = HME-1 IC50/cancer IC50,[14]; A2780 (OvC) vs HME-1 (Table 3),701.33
same,IC50,"[14]; A2780 (OvC), 72 hrs, WST-1 (Table 1), read-out: Absolute IC50",50 nM
same,"Maximal efficacy, cytotoxicity (%) at 100 μM","[14]; A2780 (OvC), 72 hrs, WST-1 (Table 2)",90.59%
